# Earlier results in publication PMC4918035, “A human and animal model-based approach to investigating the anti-inflammatory profile and potential of the 5-HT2B receptor antagonist AM1030” (Journal of Inflammation (London, England), 2016).
# Biological target: T1, 5-HT2B receptor (Homo sapiens, UniProt P41595)
# T1 construct: gene HTR2B
# Assay: receptor binding (Ki) and functional inhibition (IC50 […]); assay details not described
# T1 sequence (P41595 whole entry): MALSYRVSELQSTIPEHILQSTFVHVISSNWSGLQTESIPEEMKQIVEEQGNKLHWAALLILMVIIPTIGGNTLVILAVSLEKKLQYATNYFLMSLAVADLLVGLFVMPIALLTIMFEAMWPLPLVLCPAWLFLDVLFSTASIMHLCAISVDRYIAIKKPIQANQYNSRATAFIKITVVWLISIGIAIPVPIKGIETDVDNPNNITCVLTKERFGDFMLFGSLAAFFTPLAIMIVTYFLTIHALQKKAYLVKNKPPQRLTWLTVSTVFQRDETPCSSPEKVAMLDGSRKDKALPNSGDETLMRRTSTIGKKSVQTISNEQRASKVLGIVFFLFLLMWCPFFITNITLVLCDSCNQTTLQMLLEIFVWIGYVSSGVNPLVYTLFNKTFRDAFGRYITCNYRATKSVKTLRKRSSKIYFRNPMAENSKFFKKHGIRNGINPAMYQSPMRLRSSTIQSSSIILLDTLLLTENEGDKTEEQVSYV
substance,measurement,value
AM1030,Ki,330 nM
